In patent publication US20080267981A1, “Compositions and Methods for Delivery of Antitumor Agents” (The Scripps Research Institute, priority 2004, published 2008):

Columns and labels:
[1] = tested on: SW1990 cells; experiment: MTT cell proliferation assay on SW1990 cells; assay type: cell-based; details: Homo sapiens
Description: (§1) Cell proliferation assay. The cytotoxicity of scFv-drug or free drug was quantified by using the Vybrant MTT cell proliferation assay kit (Molecular Probes). Assays were performed using 48-well microtiter plates containing 2×10^4 SW1990 (HdFa) cells/well in 300 μL of phenol-free growth medium. Cells were allowed to attach to the wells for 12 hours. For determination of IC50, cells were incubated for 3 or 12 h at 37° C. with various concentrations of Pan10-drug conjugates, maleimide derivatives or free drugs. Then the incubation was continued in conjugate/drug-free medium and the MTT assay was performed at the end of the seventh day. Medium was replaced with 100 μL of fresh medium containing 1.2 mM MTT and the incubation continued for three more hours. The cells were then lysed by adding 100 μL of a 10 mM solution of HCL containing SDS (100 mg/mL). The cell lysis was allowed to proceed for a period of 8 hours at the end of which the plate was centrifuged at 3000 rpm for 3 min and the supernatant transferred in a 96-well plate and read at 570 nm. Each assay included a […]. All assays were performed at least twice. A set of 8 data points was obtained with various concentration of cytotoxicity agent. In order to obtain the IC50 values, data points from each set were fit to the sigmoidal dose-response curve defined by Equation 3 using Grafit5 (Leatherbarrow R. J. 2003. Grafit version 5.08, Erithieus Software Ltd, Staines, England).
y^a=min y+[(max y−min y)/(1+(IC50/x^b)^slope)] (Equation 3)
^bx=concentration of drug (drug-scF)
Data points which were outliers (typically 1-2 per experiment) were discarded.
SW1990 cells treated with Pan10, Pan10-FM, Pan10-3 or Pan10-4 were examined by inverted microscopy for a qualitative determination of the effect of the drug conjugates on the cell viability. […] The cytotoxic effect of the Pan10-drug conjugates in comparison with the toxicity of the free drugs was then quantified by the MTT (3-(4,5-dimethylthiazol-2-yl)-2,5,-diphenyltetrazolium bromide) cell-proliferation assay. Liu et al., J Neurochem, 69: 581-593, 1997; Berridge et al., Arch Biochem Biophys, 303: 474-482, 1993; Vistica et al., Cancer Res, 51: 2515-2520, 1991. SW1990 pancreatic carcinoma cells were seeded and allowed to attach in growth medium overnight. The cultures were then treated for either 3 or 12 h with increasing concentrations of free drugs or Pan10-drug conjugates.

[2] = tested on: HdFa cells; experiment: MTT cell proliferation assay on normal HdFa cells; assay type: cell-based, human; details: normal HdFa cells versus SW1990 cancer cells
Description: as §1, with “In order to obtain the IC50 values, data points from each set were fit to the sigmoidal dose-response curve defined by Equation 3 using Grafit5 (Leatherbarrow R. J. 2003. Grafit version 5.08, Erithieus Software Ltd, Staines, England).” left out

[3] = Parrish et al. 2003; different cell line, exposure time and cytotoxicity assay; read-out: IC50, previously obtained values; cited from earlier work

CC(=O)c1ccc2[nH]c(C(=O)N3C[C@@H](CCl)c4c3cc(O)c3ccccc43)cc2c1 [compound 1, 3-(5-acetylindole-2-carbonyl)-1-(S)-(chloromethyl)-5-hydroxy-1,2-dihydro-3H-benz[e]indole]
IC50 ([1]; SW1990, 3 h): 1.4 ± 0.2 nM
IC50 ([1]; SW1990, 12 h): 0.43 ± 0.17 nM
IC50 on HdFa cells relative to IC50 against SW1990 cells [2]: roughly the same IC50 values against both cells lines
IC50 [3]: 0.002 nM

NCCCn1c(C(=O)Nc2ccc3[nH]c(C(=O)N4CC(CCl)c5c4cc(O)c4ccccc54)cc3c2)cc2ccccc21 (stereo not shown) [compound 2, 3-[5-(1-(3-aminopropyl)indole-2-carbonyl)aminoindole-2-carbonyl]-1-(chloromethyl)-5-hydroxy-1,2-dihydro-3H-benz[e]indole]
IC50 ([1]; SW1990, 3 h): 32.1 ± 13.1 nM
IC50 ([1]; SW1990, 12 h): 4.3 ± 0.2 nM
IC50 [3]: 0.03 nM
